Data on five compounds can be found in patent publication US8575091B1, “Amylin analogues and pharmaceutical compositions thereof” (Novo Nordisk A/S, priority 2012, dated 2013).

For assay [1], the target named is T1, human amylin receptor (Homo sapiens, UniProt O60896+P30988).
T1 construct: expressed in transfected cells
T1 sequence (P30988 25-474): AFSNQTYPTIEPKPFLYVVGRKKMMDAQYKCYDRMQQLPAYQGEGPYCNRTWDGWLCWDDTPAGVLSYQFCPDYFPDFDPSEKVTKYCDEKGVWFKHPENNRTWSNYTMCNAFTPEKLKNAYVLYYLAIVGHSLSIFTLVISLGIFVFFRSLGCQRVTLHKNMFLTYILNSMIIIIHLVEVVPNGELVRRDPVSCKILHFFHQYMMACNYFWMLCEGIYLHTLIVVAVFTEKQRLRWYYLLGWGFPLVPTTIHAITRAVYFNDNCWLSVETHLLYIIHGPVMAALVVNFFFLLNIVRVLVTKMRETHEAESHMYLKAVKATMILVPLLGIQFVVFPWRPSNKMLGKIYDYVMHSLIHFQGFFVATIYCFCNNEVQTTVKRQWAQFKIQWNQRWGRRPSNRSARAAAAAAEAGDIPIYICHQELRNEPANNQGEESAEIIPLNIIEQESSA
T1 sequence (O60896 24-148 partner): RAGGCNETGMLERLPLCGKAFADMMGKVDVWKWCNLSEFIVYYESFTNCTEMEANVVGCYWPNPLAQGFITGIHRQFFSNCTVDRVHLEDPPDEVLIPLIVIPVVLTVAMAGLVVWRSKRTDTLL
Put plainly: Assay (V) binding to the human amylin receptor (SPA, 125I-rat amylin). The note with it: for IC50: human amylin receptor membranes, SPA, read-out: hAmylin-R bind IC50. The procedure, abridged:
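SPA competition binding on membranes from Amylin 3(a)/CRE-luc cells, 35 ng/μL membranes with 0.05 mg/well beads. Buffer 50 mM Hepes pH 7.4, 1 mM CaCl2, 5 mM MgCl2, 0.1% OA, 0.02% Tween20. IC50 from one-site competition fit as affinity measure.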

Assay [2] has as its target T2, human calcitonin receptor (Homo sapiens, UniProt P30988).
T2 construct: expressed in transfected cells
T2 sequence (P30988 25-474): T1 sequence (P30988 25-474)
Put plainly: Assay (II)a functional assay, human calcitonin receptor (CRE luciferase, BHK cells).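 Further: luminescence from a CRE-driven luciferase reporter, read by single photon counting after cells were exposed to test samples for 3 h at 37 °C under 5% CO2.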 Particulars: read-out: hCTR funct. EC50. In kind it is cell-based.

Assay [3] concerns the target T3, human amylin receptor (amylin 3(a) receptor: human calcitonin receptor + RAMP-3) (Homo sapiens, UniProt O60896+P30988).
T3 construct: expressed in transfected cells
T3 sequence (P30988 25-474): T1 sequence (P30988 25-474)
T3 sequence (O60896 24-148 partner): T1 sequence (O60896 24-148 partner)
Put plainly: Assay (II)a functional assay, human amylin receptor (CRE luciferase, BHK cells). Particulars: for EC50: read-out: hAmylin-R funct. EC50. Format: cell-based.

For assay [4], the target named is T2, human calcitonin receptor. Put plainly: Assay (VII) binding to the human calcitonin receptor (SPA, 125I-Calcitonin).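 Further: cell membranes coupled to SPA beads, competitive displacement read by scintillation counting, IC50 derived from a one-site competition fit as a measure of receptor affinity.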 Particulars: read-out: hCTR bind IC50.
Method: Membranes were prepared in the following way; the cells were rinsed with PBS and incubated with Versene for approximately 5 min before harvesting. The cells were flushed with PBS and the cell-suspension was centrifuged for 5 min at 1000 rpm. […] The resulting pellet was resuspended in buffer 2 and protein concentration was measured (BCA protein Assay, Pierce). The homogenate was kept cold during the whole procedure. The membranes were kept at −80° C. until use. Assay was performed in a 384 well Optiplate (PerkinElmer) in a total volume of 40 ul. Membranes were mixed with SPA beads. Final concentration of membranes 35 ng/μL final and Final concentration of SPA beads was 0.05 mg/well. Test-compounds were dissolved in DMSO and further diluted in assay buffer (50 mM Hepes, pH 7.4, 1 mM CaCl2, 5 mM MgCl2, 0.1% OA and 0.02% Tween20). […] Samples were analyzed on TopCounter™ (Packard). The IC50 was calculated using (one site binding competition analysis) GraphPad Prism5 as a measure of receptor affinity.
Where [5] appears, read: Table 7b, human calcitonin receptor binding IC50 divided by human amylin receptor binding IC50.
The mark [6] stands for this setting: Table 7c, human calcitonin receptor binding IC50 divided by human amylin receptor binding IC50.
Setting [7] is: human binding ratio, included for comparison.
[8] abbreviates: functional assay, human amylin receptor.
Setting [9] is: Table 6, human functional selectivity (hCTR EC50 / hAmylin-R EC50).
Setting [10] is: Table 6a, human functional selectivity (hCTR EC50 / hAmylin-R EC50), at least 5.
The mark [11] stands for this setting: Table 6i, hCTR funct. EC50 / hAmylin-R funct. EC50.
Setting [12] is: Table 6i, human amylin receptor functional.
The mark [13] stands for this setting: Table 6j, hCTR funct. EC50 / hAmylin-R funct. EC50.
Setting [14] is: Table 6k, hCTR funct. EC50 / hAmylin-R funct. EC50.

Read-outs that look alike come from different tables or passages of the source. Numbered stars: 1 amine (or outer) side, 2 acyl side, 3 side chain; on linkers, the order of the positions; unused ones are H or OH. Bridge positions count the residues as written; N and C are the ends. Side chains are listed from the residue outwards. Peptide text beside a SMILES is read from it. * marks the point of attachment. C20 diacid = O=C(O)CCCCCCCCCCCCCCCCCCC(=O)*; γGlu = O=C(O)[C@H](CCC(=O)[*:2])N[*:1]

For orientation: IC50 means the concentration that inhibits the measured activity by half. In general, EC50 refers to the concentration needed to bring the measured effect to its halfway point. In the case of `CC[C@H](C)[C@H](NC(=O)[C@H](C)NC(=O)CNC(=O)[C@H](Cc1ccccc1)NC(=O)[C@H](CC(N)=O)NC(=O)[C@@H]1CCCN1C(=O)[C@H](CO)NC(=O)[C@H](CO)NC(=O)[C@H](Cc1c[nH]cn1)NC(=O)[C@H](CCCNC(=N)N)NC(=O)[C@H](CC(C)C)NC(=O)[C@H](Cc1ccccc1)NC(=O)[C@H](CC(=O)O)NC(=O)[C@H](C)NC(=O)[C@H](CC(C)C)NC(=O)[C@H](CCCNC(=N)N)NC(=O)[C@H](CCC(N)=O)NC(=O)[C@@H](NC(=O)[C@H](C)NC(=O)[C@@H]1CSSC[C@H](NC(=O)[C@@H](N)CCCCNC(=O)CC[C@H](NC(=O)CC[C@H](NC(=O)CCCCCCCCCCCCCCCCCCC(=O)O)C(=O)O)C(=O)O)C(=O)N[C@@H](CC(N)=O)C(=O)N[C@@H]([C@@H](C)O)C(=O)N[C@@H](C)C(=O)N[C@@H]([C@@H](C)O)C(=O)N1)[C@@H](C)O)C(=O)N1CCC[C@H]1C(=O)N[C@@H](CO)C(=O)N[C@@H](CO)C(=O)N[C@H](C(=O)N[C@@H](CC(N)=O)C(=O)N[C@H](C(=O)NCC(=O)N1CCC[C@H]1C(=O)N[C@@H](CCCNC(=N)N)C(=O)N[C@H](C(=O)N[C@@H](Cc1ccc(O)cc1)C(N)=O)[C@@H](C)O)C(C)C)[C@@H](C)O` [Example 130] (H-K([γGlu-γGlu-C20 diacid])CNTATCATQRLADFLRHSSPNFGAIPSSTNVGPRTY-NH2; disulfide 2-7), the “Ratio hCT/hAmylin binding” value in assay [1] (setting [5]), in assay [1] (setting [6]) and in assay [1] (setting [7]) was 280.0 throughout. The values for the IC50 in assay [1] and in assay [4] were 0.453 nM and 127 nM, respectively. The values for the EC50 in assay [2] and in assay [3] (setting [8]) were 7.28 nM and 0.162 nM, respectively.

As to `CC[C@H](C)[C@H](NC(=O)[C@H](C)NC(=O)CNC(=O)[C@H](Cc1ccccc1)NC(=O)[C@H](CC(N)=O)NC(=O)[C@@H]1CCCN1C(=O)[C@H](CO)NC(=O)[C@H](CO)NC(=O)[C@H](Cc1c[nH]cn1)NC(=O)[C@H](CCCNC(=N)N)NC(=O)[C@H](CC(C)C)NC(=O)[C@H](Cc1ccccc1)NC(=O)[C@H](CC(N)=O)NC(=O)[C@H](C)NC(=O)[C@H](CC(C)C)NC(=O)[C@H](CCCNC(=N)N)NC(=O)[C@H](CCC(N)=O)NC(=O)[C@@H](NC(=O)[C@H](C)NC(=O)[C@@H]1CSSC[C@H](NC(=O)[C@H](CCCCN)NC(=O)COCCOCCNC(=O)COCCOCCNC(=O)CC[C@H](NC(=O)CCCCCCCCCCCCCCCCCCC(=O)O)C(=O)O)C(=O)N[C@@H](CC(N)=O)C(=O)N[C@@H]([C@@H](C)O)C(=O)N[C@@H](C)C(=O)N[C@@H]([C@@H](C)O)C(=O)N1)[C@@H](C)O)C(=O)N1CCC[C@H]1C(=O)N[C@@H](CO)C(=O)N[C@@H](CO)C(=O)N[C@H](C(=O)N[C@@H](CC(N)=O)C(=O)N[C@H](C(=O)NCC(=O)N[C@@H](CO)C(=O)N[C@@H](CC(N)=O)C(=O)N[C@H](C(=O)N[C@@H](Cc1ccc(O)cc1)C(N)=O)[C@@H](C)O)C(C)C)[C@@H](C)O` [Example 24], the “Ratio hCT/hAmylin binding” value in assay [1] (setting [5]), in assay [1] (setting [6]) and in assay [1] (setting [7]) was 90.0 each time. The values for the concentration for half-maximal inhibition (IC50) in assay [1] and in assay [4] were 1.14 nM and 102 nM, respectively. The figures for the EC50 in assay [2] and in assay [3] (setting [8]) were 10 nM and 0.433 nM, respectively.

Consider `CC[C@H](C)[C@H](NC(=O)[C@H](C)NC(=O)CNC(=O)[C@H](Cc1ccccc1)NC(=O)[C@H](CC(N)=O)NC(=O)[C@@H]1CCCN1C(=O)[C@H](CO)NC(=O)[C@H](CO)NC(=O)[C@H](Cc1c[nH]cn1)NC(=O)[C@H](CCCNC(=N)N)NC(=O)[C@H](CC(C)C)NC(=O)[C@H](Cc1ccccc1)NC(=O)[C@H](CCC(=O)O)NC(=O)[C@H](C)NC(=O)[C@H](CC(C)C)NC(=O)[C@H](CCCNC(=N)N)NC(=O)[C@H](CCC(N)=O)NC(=O)[C@@H](NC(=O)[C@H](C)NC(=O)[C@@H]1CSSC[C@H](NC(=O)[C@@H](N)CCCCNC(=O)CC[C@H](NC(=O)CC[C@H](NC(=O)CCCCCCCCCCCCCCCCCCC(=O)O)C(=O)O)C(=O)O)C(=O)N[C@@H](CC(N)=O)C(=O)N[C@@H]([C@@H](C)O)C(=O)N[C@@H](C)C(=O)N[C@@H]([C@@H](C)O)C(=O)N1)[C@@H](C)O)C(=O)N1CCC[C@H]1C(=O)N[C@@H](CO)C(=O)N[C@@H](CO)C(=O)N[C@H](C(=O)N[C@@H](CC(N)=O)C(=O)N[C@H](C(=O)NCC(=O)N[C@@H](CCCNC(=N)N)C(=O)N[C@@H](CC(N)=O)C(=O)N[C@H](C(=O)N[C@@H](Cc1ccc(O)cc1)C(N)=O)[C@@H](C)O)C(C)C)[C@@H](C)O` [Example 88] (H-K([γGlu-γGlu-C20 diacid])CNTATCATQRLAEFLRHSSPNFGAIPSSTNVGRNTY-NH2; disulfide 2-7), for which the IC50 in assay [1] worked out at 0.75 nM; in assay [4] it was 34.9 nM. Also, the EC50 in assay [2] turned out to be 6.55 nM; in assay [3] (setting [12]), 0.773 nM. In addition, the “Ratio hCT/hAmylin funct.” value in assay [3] (setting [9]), in assay [3] (setting [10]), in assay [3] (setting [11]), in assay [3] (setting [13]) and in assay [3] (setting [14]) was 8.5 each time.

`CC[C@H](C)[C@H](NC(=O)[C@H](C)NC(=O)CNC(=O)[C@H](Cc1ccccc1)NC(=O)[C@H](CC(N)=O)NC(=O)[C@@H]1CCCN1C(=O)[C@H](CO)NC(=O)[C@H](CO)NC(=O)[C@H](Cc1c[nH]cn1)NC(=O)[C@H](CCCNC(=N)N)NC(=O)[C@H](CC(C)C)NC(=O)[C@H](Cc1ccccc1)NC(=O)[C@H](CCC(=O)O)NC(=O)[C@H](C)NC(=O)[C@H](CC(C)C)NC(=O)[C@H](CCCNC(=N)N)NC(=O)[C@H](CCC(N)=O)NC(=O)[C@@H](NC(=O)[C@H](C)NC(=O)[C@@H]1CSSC[C@H](NC(=O)[C@@H](N)CCCCNC(=O)CC[C@H](NC(=O)CC[C@H](NC(=O)CCCCCCCCCCCCCCCCCCC(=O)O)C(=O)O)C(=O)O)C(=O)N[C@@H](CC(N)=O)C(=O)N[C@@H]([C@@H](C)O)C(=O)N[C@@H](C)C(=O)N[C@@H]([C@@H](C)O)C(=O)N1)[C@@H](C)O)C(=O)N1CCC[C@H]1C(=O)N[C@@H](CO)C(=O)N[C@@H](CO)C(=O)N[C@H](C(=O)N[C@@H](CC(N)=O)C(=O)N[C@H](C(=O)NCC(=O)N[C@@H](Cc1c[nH]cn1)C(=O)N[C@@H](CCC(=O)O)C(=O)N[C@H](C(=O)N[C@@H](Cc1ccc(O)cc1)C(N)=O)[C@@H](C)O)C(C)C)[C@@H](C)O` [Example 104] (H-K([γGlu-γGlu-C20 diacid])CNTATCATQRLAEFLRHSSPNFGAIPSSTNVGHETY-NH2; disulfide 2-7): the IC50 in assay [1] amounted to 0.525 nM; in assay [4], 15.2 nM. Also, the EC50 was found to be 7.05 nM in assay [2] and 0.445 nM in assay [3] (setting [8]).

For the compound `CC[C@H](C)[C@H](NC(=O)[C@H](C)NC(=O)CNC(=O)[C@H](Cc1ccccc1)NC(=O)[C@H](CC(N)=O)NC(=O)[C@@H]1CCCN1C(=O)[C@H](CO)NC(=O)[C@H](CO)NC(=O)[C@H](Cc1c[nH]cn1)NC(=O)[C@H](CCCNC(=N)N)NC(=O)[C@H](CC(C)C)NC(=O)[C@H](Cc1ccccc1)NC(=O)[C@H](CCC(=O)O)NC(=O)[C@H](C)NC(=O)[C@H](CC(C)C)NC(=O)[C@H](CCCNC(=N)N)NC(=O)[C@H](CCC(N)=O)NC(=O)[C@@H](NC(=O)[C@H](C)NC(=O)[C@@H]1CSSC[C@H](NC(=O)[C@H](CCCCN)NC(=O)CC[C@H](NC(=O)CCCCCCCCCCCCCCCCCCC(=O)O)C(=O)O)C(=O)N[C@@H](CC(N)=O)C(=O)N[C@@H]([C@@H](C)O)C(=O)N[C@@H](C)C(=O)N[C@@H]([C@@H](C)O)C(=O)N1)[C@@H](C)O)C(=O)N1CCC[C@H]1C(=O)N[C@@H](CO)C(=O)N[C@@H](CO)C(=O)N[C@H](C(=O)N1CCC[C@H]1C(=O)N[C@H](C(=O)NCC(=O)N[C@@H](CO)C(=O)N[C@@H](CC(N)=O)C(=O)N[C@H](C(=O)N[C@@H](Cc1ccc(O)cc1)C(N)=O)[C@@H](C)O)C(C)C)[C@@H](C)O` [Example 31] ({C20 diacid-γGlu}-KCNTATCATQRLAEFLRHSSPNFGAIPSSTPVGSNTY-NH2; disulfide 2-7), the “Ratio hCT/hAmylin binding” value in assay [1] (setting [5]) and in assay [1] (setting [7]) was 16.0 throughout. Besides, the IC50 is 0.204 nM in assay [1] and 3.26 nM in assay [4]. The EC50 in assay [2] stood at 0.717 nM; in assay [3] (setting [12]), 0.112 nM. The “Ratio hCT/hAmylin funct.” value in assay [3] (setting [9]), in assay [3] (setting [10]), in assay [3] (setting [11]), in assay [3] (setting [13]) and in assay [3] (setting [14]) was 6.4 each time.
